“Also recorded” adds a separate entry of the source. Read-outs that look alike come from different tables or passages of the source.
What was measured:
RXRα:RARα heterodimer = biological target: T1, RXRα:RARα heterodimer (Homo sapiens, UniProt P19793); assay: Gal4-receptor chimera transactivation assay, RXRα:RARα heterodimer; details: for effect on RXRα:RARα heterodimer in combination with TTNPB (in words): combined with the RXR:RAR activator TTNPB, data not shown; for agonist activity on RXRα:RARα heterodimers (in words): compound alone
T1 sequence (P19793 227-458 limits assumed): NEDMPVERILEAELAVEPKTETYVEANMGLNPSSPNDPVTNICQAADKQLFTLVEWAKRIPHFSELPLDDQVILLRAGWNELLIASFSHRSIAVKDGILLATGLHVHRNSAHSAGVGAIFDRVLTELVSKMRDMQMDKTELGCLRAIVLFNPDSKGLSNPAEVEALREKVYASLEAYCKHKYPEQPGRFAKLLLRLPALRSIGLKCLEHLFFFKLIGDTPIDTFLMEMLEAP
T1 sequence (P10276 183-417 partner limits assumed): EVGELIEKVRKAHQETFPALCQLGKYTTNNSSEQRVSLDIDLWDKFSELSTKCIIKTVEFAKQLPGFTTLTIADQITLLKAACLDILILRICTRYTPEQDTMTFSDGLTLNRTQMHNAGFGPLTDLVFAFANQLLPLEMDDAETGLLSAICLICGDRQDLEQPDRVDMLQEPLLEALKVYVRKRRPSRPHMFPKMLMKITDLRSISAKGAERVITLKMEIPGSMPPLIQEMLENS

RXRα:RXRα homodimer = biological target: T2, RXRα:RXRα homodimer (Homo sapiens, UniProt P19793); assay: Gal4-receptor chimera transactivation assay, RXR homodimer; details: for Fold activation: CV-1 cells, 100 nM LG100268, LGD1069, n.e. = no effect; for Fold activation / Fold Repression: 500 nM Compounds 117, 122, 130, 1 mM Compound 131; for agonist activity on RXR homodimers in the GAL4 transfection assay (in words): compound alone; for antagonist activity on RXR homodimers in the GAL4 transfection assay (in words) / Fold Repression: in combination with either LGD1069 or LG100268
T2 sequence (P19793 227-458 limits assumed): T1 sequence (P19793 227-458 limits assumed)
Description: Briefly, CV-1 cells were transfected in 12 well multi-well plates using 0.1 μg of each receptor and 0.5 μg of reporter per well. Each well was also transfected with 0.5 μg of the β-Gal expression plasmid as an internal control for transfection efficiency. Total plasmid per well was 2 μg made up using the plasmid pGEM. […] Receptor ligand binding domains (LBDs) were fused in-frame downstream to the Gal4 cDNA to produce Gal4-receptor fusion proteins. To express only the receptor LBDs, the LBD was cloned directly downstream to the CMV promoter.
Cells were then washed 2X with PBS and lysed using Promega lysis buffer and assayed for luciferase activity and β-galactosidase activity. All results were normalized against β-Gal. Each set was done in triplicates and each experiment was carried out at least 3 separate times with similar results.

RXRγ [1] = biological target: T3, RXRγ (Mus musculus, UniProt P28705); assay: RXR binding, RXRγ; details: -v- tritiated LGD1069 and tritiated 9-cis retinoic acid
T3 sequence (P28705 1-463): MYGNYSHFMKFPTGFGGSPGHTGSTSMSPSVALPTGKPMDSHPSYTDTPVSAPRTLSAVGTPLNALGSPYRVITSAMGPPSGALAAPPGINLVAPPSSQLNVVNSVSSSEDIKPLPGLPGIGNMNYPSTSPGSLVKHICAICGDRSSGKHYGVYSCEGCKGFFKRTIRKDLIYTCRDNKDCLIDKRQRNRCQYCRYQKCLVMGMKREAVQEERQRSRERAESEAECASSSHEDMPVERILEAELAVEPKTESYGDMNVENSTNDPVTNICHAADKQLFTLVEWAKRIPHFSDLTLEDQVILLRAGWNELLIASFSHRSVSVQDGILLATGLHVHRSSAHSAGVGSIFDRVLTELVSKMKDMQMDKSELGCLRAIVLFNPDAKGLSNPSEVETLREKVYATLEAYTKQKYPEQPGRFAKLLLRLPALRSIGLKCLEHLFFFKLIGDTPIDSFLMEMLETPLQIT
Description: (§1) Non-specific binding was defined as that binding remaining in the presence of 500 nM of the appropriate unlabelled compound. At the end of the incubation period, bound from free ligand were separated. The amount of bound tritiated retinoids was determined by liquid scintillation counting of an aliquot (700 μL) of the supernatant fluid or the hydroxylapatite pellet.
(§2) After correcting for non-specific binding, IC50 values were determined. […] The IC50 value was determined graphically from a log-logit plot of the data. The Kd values were determined by application of the Cheng-Prussof equation to the IC50 values, the labeled ligand concentration and the Kd of the labeled ligand.

RXRα [2] = biological target: T4, RXRα (Homo sapiens, UniProt P19793); assay: RXR binding, RXRα; details: -v- tritiated LGD1069 and tritiated 9-cis retinoic acid
T4 sequence (P19793 1-462): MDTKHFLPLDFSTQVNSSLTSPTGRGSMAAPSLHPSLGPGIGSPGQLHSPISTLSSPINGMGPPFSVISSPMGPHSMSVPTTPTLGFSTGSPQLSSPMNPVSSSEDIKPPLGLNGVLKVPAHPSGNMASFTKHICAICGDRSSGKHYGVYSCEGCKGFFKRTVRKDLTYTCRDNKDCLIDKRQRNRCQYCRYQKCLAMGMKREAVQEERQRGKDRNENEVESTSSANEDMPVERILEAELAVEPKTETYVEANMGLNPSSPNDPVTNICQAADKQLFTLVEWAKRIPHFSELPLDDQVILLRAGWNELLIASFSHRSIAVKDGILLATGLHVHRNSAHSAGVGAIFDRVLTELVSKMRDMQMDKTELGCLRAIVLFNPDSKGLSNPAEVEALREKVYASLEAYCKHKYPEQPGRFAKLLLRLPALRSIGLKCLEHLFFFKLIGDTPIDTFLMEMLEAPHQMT
Description: as §1, §2

RXR:RXR homodimer = biological target: T5, RXR:RXR homodimer (Homo sapiens, UniProt P19793); assay: RXR homodimer co-transfection assay (FIG. 1); details: in the presence of known RXR activators (LGD1069, LG100268, 9-cis retinoic acid)
T5 sequence (P19793 1-462): T4 sequence (P19793 1-462)

RXRβ [3] = biological target: T6, RXRβ (Mus musculus, UniProt P28704); assay: RXR binding, RXRβ; details: -v- tritiated LGD1069 and tritiated 9-cis retinoic acid
T6 sequence (P28704 1-520): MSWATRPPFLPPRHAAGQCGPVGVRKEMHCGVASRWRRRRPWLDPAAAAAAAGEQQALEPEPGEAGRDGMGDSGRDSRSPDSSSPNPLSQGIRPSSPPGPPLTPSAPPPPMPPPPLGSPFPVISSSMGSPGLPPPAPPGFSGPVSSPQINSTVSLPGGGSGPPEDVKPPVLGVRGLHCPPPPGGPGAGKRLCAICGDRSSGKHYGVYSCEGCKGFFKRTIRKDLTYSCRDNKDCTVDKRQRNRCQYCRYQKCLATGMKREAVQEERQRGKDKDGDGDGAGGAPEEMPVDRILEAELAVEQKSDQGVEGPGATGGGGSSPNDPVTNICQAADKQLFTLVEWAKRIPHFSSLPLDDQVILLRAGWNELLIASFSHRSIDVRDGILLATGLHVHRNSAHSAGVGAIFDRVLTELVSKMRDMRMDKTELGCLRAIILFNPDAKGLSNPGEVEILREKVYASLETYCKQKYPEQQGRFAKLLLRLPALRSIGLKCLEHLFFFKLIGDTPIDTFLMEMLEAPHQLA
Description: as §1, §2

NB4 cells = assay: NB4 myeloid leukemic cell differentiation; assay type: cell-based; details: Compound 122 1 mM, TTNPB, 9-cis retinoic acid, LG100268 100 nM, FIG. 3
Description: All points were performed in triplicate for each experiment and varied less than 20%. Each experiment was repeated at least three times with similar results.

RXRα:PPARα heterodimer = biological target: T7, RXRα:PPARα heterodimer (Homo sapiens, UniProt P19793); assay: RXR heterodimer co-transfection assay (RXRα and PPARα, PPARα response element reporter); details: for Fold activation: normalized luciferase values at 10−5M divided by values with vehicle
T7 sequence (P19793 1-462): T4 sequence (P19793 1-462)
T7 sequence (Q07869 1-468 partner): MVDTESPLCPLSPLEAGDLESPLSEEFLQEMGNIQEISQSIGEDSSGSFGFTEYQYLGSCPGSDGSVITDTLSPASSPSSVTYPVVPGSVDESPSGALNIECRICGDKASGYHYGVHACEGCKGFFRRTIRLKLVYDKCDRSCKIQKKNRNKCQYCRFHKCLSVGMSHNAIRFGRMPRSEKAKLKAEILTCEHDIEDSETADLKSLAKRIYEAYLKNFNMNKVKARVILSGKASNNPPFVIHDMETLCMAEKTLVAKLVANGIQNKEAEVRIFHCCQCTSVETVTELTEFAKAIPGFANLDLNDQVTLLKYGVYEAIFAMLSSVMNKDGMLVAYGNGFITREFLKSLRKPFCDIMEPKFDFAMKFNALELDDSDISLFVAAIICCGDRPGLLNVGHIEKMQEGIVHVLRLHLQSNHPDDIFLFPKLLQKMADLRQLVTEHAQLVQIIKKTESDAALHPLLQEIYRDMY

RXRγ [4] = biological target: T3, RXRγ; assay: RXR homodimer co-transfection assay, antagonist mode, RXRγ; details: read-out: RXRγ Potency IC50; antagonist potency in the presence of the known RXR agonist LGD1069; CV-1 cells
RXRβ [5] = biological target: T6, RXRβ; assay: RXR homodimer co-transfection assay, antagonist mode, RXRβ; details: read-out: RXRβ Potency IC50; antagonist potency in the presence of the known RXR agonist LGD1069; CV-1 cells
RXRα [6] = biological target: T4, RXRα; assay: RXR homodimer co-transfection assay, antagonist mode, RXRα; details: read-out: RXRα Potency IC50; antagonist potency in the presence of the known RXR agonist LGD1069; CV-1 cells

Molecule | Kd (RXRγ [1]) [nM] | Kd (RXRα [2]) [nM] | antagonism of RXR homodimer transactivation (in words) (RXR:RXR homodimer) | Kd (RXRβ [3]) [nM] | Fold activation (RXRα:PPARα heterodimer) [fold] | differentiation of NB4 cells (in words) (NB4 cells) | further results
C/C(=C/C=C/C(C)=C/C(=O)O)c1cc2c(cc1OCc1ccc(C)cc1)C(C)(C)CCC2(C)C [Compound 130, (2E, 4E, 6Z)-7-[3-(4-methylbenzyloxy)-5,6,7,8-tetrahydro-5,5,8,8-tetramethyl-2-naphthalen-2-yl]-3-methylocta-2,4,6-trienoic acid] | – | – | – | – | – | – | effect on RXRα:RARα heterodimer in combination with TTNPB (in words) (RXRα:RARα heterodimer): slight increase in activation; agonist activity on RXRα:RARα heterodimers (in words) (RXRα:RARα heterodimer): potent agonists; Fold activation (RXRα:RXRα homodimer): n.e.; agonist activity on RXR homodimers in the GAL4 transfection assay (in words) (RXRα:RXRα homodimer): inactive; antagonist activity on RXR homodimers in the GAL4 transfection assay (in words) (RXRα:RXRα homodimer): strong antagonists; Fold Repression (RXRα:RXRα homodimer): 25-75 fold
Cc1cc2c(cc1C1(c3ccc(C(=O)O)cn3)CC1)C(C)(C)CCC2(C)C [LG100268, 6-[1-(3,5,5,8,8-pentamethyl-5,6,7,8-tetrahydronaphthalen-2-yl)cyclopropyl]nicotinic acid] | – | – | – | – | – | does not promote NB4 differentiation | differentiation of NB4 cells (in words) (NB4 cells; listed as LB100268): does not
CC1=C(/C=C/C(C)=C\C=C\C(C)=C\C(=O)O)C(C)(C)CCC1 [9-cis retinoic acid] | – | – | – | – | – | stimulate NB4 cells to differentiate | –
4-[(3-hexyloxy-5,6,7,8-tetrahydro-5,5,8,8-tetramethyl-2-naphthyl)carbonyl]benzoic acid oxime [Compound 114] | 38 | 9 | function as antagonists | 12 | 4 | – | EC50 (RXRα:PPARα heterodimer; read-out: EC50 (agonist potency), CV-1 cell transfected with both RXRα and PPARα): 200 nM; IC50 (RXRγ [4]): 206 nM; IC50 (RXRβ [5]): 197 nM; IC50 (RXRα [6]): 126 nM
C/C(=C\c1ccc(C(=O)O)cc1)c1ccc2c(c1)C(C)(C)CCC2(C)C [TTNPB, (E)-4-[2-(5,6,7,8-tetrahydro-5,5,8,8-tetramethyl-2-naphthalenyl)-1-propenyl]benzoic acid] | – | – | – | – | – | stimulate NB4 cells to differentiate | –

Further lines, with some results ahead:

Kd (RXRγ [1]) [nM] | Kd (RXRα [2]) [nM] | antagonism of RXR homodimer transactivation (in words) (RXR:RXR homodimer) | Kd (RXRβ [3]) [nM] | Fold activation (RXRα:PPARα heterodimer) [fold] | Molecule | differentiation of NB4 cells (in words) (NB4 cells) | further results
6 | 3 | especially potent antagonist | 8 | – | CCCCCCCOc1c(\C(C)=C/C=C/C(C)=C/C(=O)O)cc(C(C)C)cc1C(C)C [Compound 147, (2E, 4E, 6Z)-7-(3,5-diisopropyl-2-n-heptyloxyphenyl)-3-methylocta-2,4,6-trienoic acid] | – | –
181 | 163 | function as antagonists | 155 | 5 | CC1(C)CCC(C)(C)c2cc3c(cc21)CCCN3Cc1ccc(C(=O)O)cc1 [Compound 135, 4-(3,4,6,7,8,9-hexahydro-6,6,9,9-tetramethyl-2H-benzo[g]quinolin-1-ylmethyl)benzoic acid] | – | melting point: 173 to 175 °C
33 | – | – | 29 | – | CCCOc1cc2c(cc1\C(C)=C/C=C/C(C)=C/C(=O)O)C(C)(C)CCC2(C)C [Compound 122, (2E, 4E, 6Z)-7-[3-propoxy-5,5,8,8-tetramethyl-5,6,7,8-tetrahydro-2-naphthalen-2-yl]-3-methylocta-2,4,6-trienoic acid] | stimulate NB4 cells to differentiate; also recorded: equally, if not more effective in promoting differentiation of NB4 cells | –
107 | 140 | function as antagonists | 105 | 7 | CC1(C)CCC(C)(C)c2cc3c(cc21)CCC=C3Cc1ccc(C(=O)O)cc1 [Compound 131, 4-(3,4,5,6,7,8-hexahydro-5,5,8,8-tetramethyl-anthracen-1-ylmethyl)benzoic acid] | – | EC50 (RXRα:PPARα heterodimer): 800 nM; effect on RXRα:RARα heterodimer in combination with TTNPB (in words) (RXRα:RARα heterodimer): slight increase in activation; agonist activity on RXRα:RARα heterodimers (in words) (RXRα:RARα heterodimer): potent agonists; Fold activation (RXRα:RXRα homodimer): n.e.; agonist activity on RXR homodimers in the GAL4 transfection assay (in words) (RXRα:RXRα homodimer): inactive; antagonist activity on RXR homodimers in the GAL4 transfection assay (in words) (RXRα:RXRα homodimer): weak antagonist; Fold Repression (RXRα:RXRα homodimer): 1.3 fold

Source: patent US6545049B1, “Dimer-selective RXR modulators and methods for their use” (Ligand Pharmaceuticals Incorporated, priority 1995, dated 2003)
